According to patent US6562782B1, “Oligocycloalkanoid compounds and methods of use” (University of Rochester, priority 1999, dated 2003):

Test: UV titration of ter-cyclopentane tetra-amino acid derivatives with lipid A
Format: binding, Salmonella minnesota
Conditions: for binding to lipid A in UV titration, in words: aqueous solution, concentrations below the cmc of lipid A / >20 micromolar in lipid A
Experimental: A 600 microliter, 0.9 μM solution of the ter-cyclopentane tetra-amino acid derivative in water (pH=5.0) or phosphate-buffered saline (PBS, pH=7.4) was allowed to equilibrate in a 1.0-ml masked wall UV cell at ambient temperature (22° C.), in a Shimadzu 1600-PC UV spectrophotometer. […] After each addition, the solution was allowed to equilibrate for a minimum of 5 minutes, then scanned for absorbance 550-220 nm.

| Compound | lipid A binding affinity compared with polymyxins | binding to lipid A in UV titration, in words |
| --- | --- | --- |
| NC(Cc1c[nH]c2ccccc12)C(=O)OCC1CC(COC(=O)C(N)Cc2c[nH]c3ccccc23)C(C2CCC(C3C(COC(=O)C(N)Cc4c[nH]c5ccccc45)CC(COC(=O)C(N)Cc4c[nH]c5ccccc45)C3COC(=O)c3ccccc3)C2)C1COC(=O)c1ccccc1 (mixture of isomers) [Compound 7.3, tetra-tryptophaninate ter-cyclopentane] | greater than the binding affinity of polymyxins |  |
| NCC(=O)OCC1CC(COC(=O)CN)C(C2CCC(C3C(COC(=O)CN)CC(COC(=O)CN)C3COC(=O)c3ccccc3)C2)C1COC(=O)c1ccccc1 (stereo not shown) [Compound 7.1, tetra-glycinate ter-cyclopentane] |  | saturation point for binding of lipid A to 7.1 was not reached |
| COC(=O)[C@@H](N)Cc1c[nH]c2ccccc12 [Compound H2N-Trp-OCH3, tryptophan methyl-ester, reference compound] |  | not saturatable at the concentrations tested |
| tetra-phenylalaninate ter-cyclopentane [Compound 7.2] |  | reasonable affinity |
